System: MDA-MB-468 cell line
Assay: Resazurin viability assay
Type: cell-based
Details: co-treatment with BEZ235, sub-toxic doses combined, 24 hrs, MDA-MB-468 cells (FIG. 1)
Protocol: Cell Culture. The MDA-MB-468 cell line was from ATCC. This cell line was established from a pleural effusion of patient with metastatic breast adenocarcinoma. The cells were maintained in RPMI medium supplemented with 10% (v/v) FBS, 0.3 mg/mL L-glutamine, and 0.1 mg/mL gentamicin at 37° C. in 5% CO2. Sub-culture using trypsin-EDTA was performed every 3-4 days with a split ratio of 1:3-1:6 to ensure actively proliferating cells.
Resazurin Viability Assay. Cells were seeded in fully supplemented medium at a density of 7 000 cells per well in 96 well plates. After 24 hrs of cultivation, when the cells were ˜60% confluent, the medium was replaced with serum free medium to ensure synchronization of the cells and to increase cell sensitivity to treatment. Following 16 hrs of serum starvation, the medium was replaced with fresh serum free medium with or without Compounds 1 and 2 (Avexxin, Norway), and NVP-BEZ235 (Cayman Chemicals, US) or solvent (DMSO, Sigma Aldrich, US). The cells were observed under the microscope to evaluate possible morphology changes and signs of stress before the addition of resazurin according to the manufacturers instructions (RnD Systems, UK). Resazurin was metabolized for 2 hrs (37° C., 5% CO2) before fluorescence was read at 544 nm excitation and 590 nm emission wavelengths (BioTek Synergy HT).

CCCCCCCOc1ccc(OCC(=O)c2nc(C(=O)OC)cs2)cc1 [Compound 1]
synergistic effects on breast cancer cell viability compared to each inhibitor alone: synergistic effects | synergistic effects on breast cancer cell viability compared to each inhibitor alone (listed as compound 1): the synergistic effect is pronounced

— patent US11439625B2, “Combination therapy for proliferative diseases” (Avexxin AS, priority 2016, dated 2022)
